SMILES strings stand for the structures. Activity calls are given as the source filed them. For most assays here, no stated cut-off is given here; in the data, actives have a measured Kd and inactives only a lower limit. Where only a bound is given, the exact number is not on record here.

The target in assay [1] is Ribosomal protein S6 kinase alpha-6 (Homo sapiens, UniProt Q9UK32).
Assay [2] has as its target T1, Uncharacterized protein FLJ45252 (Homo sapiens, UniProt Q6ZSR9).
T1 sequence (Q6ZSR9 whole entry): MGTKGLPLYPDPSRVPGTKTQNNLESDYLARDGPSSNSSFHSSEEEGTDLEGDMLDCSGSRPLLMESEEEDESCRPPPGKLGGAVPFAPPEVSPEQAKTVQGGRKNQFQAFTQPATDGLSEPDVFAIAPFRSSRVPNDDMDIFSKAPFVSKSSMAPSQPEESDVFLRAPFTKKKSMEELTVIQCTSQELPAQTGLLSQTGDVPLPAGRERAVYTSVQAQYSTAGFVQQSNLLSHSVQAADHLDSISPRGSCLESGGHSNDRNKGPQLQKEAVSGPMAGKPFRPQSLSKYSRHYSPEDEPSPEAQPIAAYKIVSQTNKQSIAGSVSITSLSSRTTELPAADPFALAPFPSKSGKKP
The note with it: read-out: Kd apparent; k-562, colo 205, sk-n-be(2) and mv-4-11.

The target of assay [3] is T2, Beta-adrenergic receptor kinase 1 (Homo sapiens, UniProt P25098).
T2 sequence (P25098 whole entry): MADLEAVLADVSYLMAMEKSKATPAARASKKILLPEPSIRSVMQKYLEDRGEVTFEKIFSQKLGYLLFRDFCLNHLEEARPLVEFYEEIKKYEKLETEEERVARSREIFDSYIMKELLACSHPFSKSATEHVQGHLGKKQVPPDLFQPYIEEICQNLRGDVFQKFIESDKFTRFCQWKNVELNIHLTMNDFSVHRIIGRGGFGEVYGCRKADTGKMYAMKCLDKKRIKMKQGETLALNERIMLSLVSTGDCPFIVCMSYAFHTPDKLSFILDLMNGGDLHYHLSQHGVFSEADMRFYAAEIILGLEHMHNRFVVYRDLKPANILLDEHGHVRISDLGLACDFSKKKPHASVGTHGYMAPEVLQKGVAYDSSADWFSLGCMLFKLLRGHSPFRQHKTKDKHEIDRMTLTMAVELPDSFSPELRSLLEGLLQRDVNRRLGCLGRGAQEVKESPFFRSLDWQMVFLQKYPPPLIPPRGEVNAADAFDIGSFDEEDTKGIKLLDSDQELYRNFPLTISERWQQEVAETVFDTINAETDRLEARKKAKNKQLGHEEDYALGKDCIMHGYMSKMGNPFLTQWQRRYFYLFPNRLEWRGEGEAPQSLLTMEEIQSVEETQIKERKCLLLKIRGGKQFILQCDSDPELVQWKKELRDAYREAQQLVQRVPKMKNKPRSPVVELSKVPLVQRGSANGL

The target of assay [4] is T3, Phosphorylase b kinase gamma catalytic chain, liver/testis isoform (Homo sapiens, UniProt P15735).
T3 sequence (P15735 whole entry): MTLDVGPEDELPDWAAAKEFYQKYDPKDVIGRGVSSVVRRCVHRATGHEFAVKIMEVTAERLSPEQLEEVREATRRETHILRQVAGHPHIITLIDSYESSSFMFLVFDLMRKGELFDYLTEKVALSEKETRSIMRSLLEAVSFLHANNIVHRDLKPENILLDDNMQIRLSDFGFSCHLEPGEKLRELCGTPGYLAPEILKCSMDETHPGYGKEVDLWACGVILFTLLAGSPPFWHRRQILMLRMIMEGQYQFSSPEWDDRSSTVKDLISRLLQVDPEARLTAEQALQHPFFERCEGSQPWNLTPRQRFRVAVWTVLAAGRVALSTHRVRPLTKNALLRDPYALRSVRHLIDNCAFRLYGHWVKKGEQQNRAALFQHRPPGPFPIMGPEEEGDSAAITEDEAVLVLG

The target of assay [5] is T4, AarF domain-containing protein kinase 1 (Homo sapiens, UniProt Q86TW2).
T4 sequence (Q86TW2 whole entry): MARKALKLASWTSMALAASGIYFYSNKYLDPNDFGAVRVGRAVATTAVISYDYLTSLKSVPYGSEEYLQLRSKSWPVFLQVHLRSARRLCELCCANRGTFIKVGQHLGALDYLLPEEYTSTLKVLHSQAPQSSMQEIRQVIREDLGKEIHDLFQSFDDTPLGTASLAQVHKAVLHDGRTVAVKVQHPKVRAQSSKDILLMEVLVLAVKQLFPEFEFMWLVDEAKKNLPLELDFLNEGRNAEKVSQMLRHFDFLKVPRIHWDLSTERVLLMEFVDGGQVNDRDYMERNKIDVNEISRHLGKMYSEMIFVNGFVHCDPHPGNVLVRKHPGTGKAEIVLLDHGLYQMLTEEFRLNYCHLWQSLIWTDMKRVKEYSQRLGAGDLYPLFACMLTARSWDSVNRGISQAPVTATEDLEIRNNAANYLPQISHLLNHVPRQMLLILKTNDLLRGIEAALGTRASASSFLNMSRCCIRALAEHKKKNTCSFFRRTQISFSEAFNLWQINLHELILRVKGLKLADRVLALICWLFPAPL

Assay [6] addresses Protein kinase C beta type (Homo sapiens, UniProt P05771).
In assay [7] the target is T5, Succinate--CoA ligase [ADP-forming] subunit beta, mitochondrial (Homo sapiens, UniProt Q9P2R7).
T5 sequence (Q9P2R7 whole entry): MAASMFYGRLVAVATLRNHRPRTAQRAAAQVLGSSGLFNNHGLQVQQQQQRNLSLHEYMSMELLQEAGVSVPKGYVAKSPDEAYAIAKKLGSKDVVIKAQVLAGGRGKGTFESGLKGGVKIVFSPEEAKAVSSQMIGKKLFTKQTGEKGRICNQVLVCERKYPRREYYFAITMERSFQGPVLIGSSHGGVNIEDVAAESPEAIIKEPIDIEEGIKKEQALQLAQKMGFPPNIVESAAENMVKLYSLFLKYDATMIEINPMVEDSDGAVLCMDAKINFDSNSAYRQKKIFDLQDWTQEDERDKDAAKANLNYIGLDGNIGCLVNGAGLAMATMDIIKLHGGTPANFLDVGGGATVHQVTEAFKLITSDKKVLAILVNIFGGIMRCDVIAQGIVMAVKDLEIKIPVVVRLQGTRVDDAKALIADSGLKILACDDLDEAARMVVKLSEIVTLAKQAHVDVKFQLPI

For assay [8], the target named is Inosine-5'-monophosphate dehydrogenase 2 (Homo sapiens, UniProt P12268).
Assay [9] addresses RAC-gamma serine/threonine-protein kinase (Homo sapiens, UniProt Q9Y243).

Chain of Ribosomal protein S6 kinase alpha-6 (Q9UK32 whole entry): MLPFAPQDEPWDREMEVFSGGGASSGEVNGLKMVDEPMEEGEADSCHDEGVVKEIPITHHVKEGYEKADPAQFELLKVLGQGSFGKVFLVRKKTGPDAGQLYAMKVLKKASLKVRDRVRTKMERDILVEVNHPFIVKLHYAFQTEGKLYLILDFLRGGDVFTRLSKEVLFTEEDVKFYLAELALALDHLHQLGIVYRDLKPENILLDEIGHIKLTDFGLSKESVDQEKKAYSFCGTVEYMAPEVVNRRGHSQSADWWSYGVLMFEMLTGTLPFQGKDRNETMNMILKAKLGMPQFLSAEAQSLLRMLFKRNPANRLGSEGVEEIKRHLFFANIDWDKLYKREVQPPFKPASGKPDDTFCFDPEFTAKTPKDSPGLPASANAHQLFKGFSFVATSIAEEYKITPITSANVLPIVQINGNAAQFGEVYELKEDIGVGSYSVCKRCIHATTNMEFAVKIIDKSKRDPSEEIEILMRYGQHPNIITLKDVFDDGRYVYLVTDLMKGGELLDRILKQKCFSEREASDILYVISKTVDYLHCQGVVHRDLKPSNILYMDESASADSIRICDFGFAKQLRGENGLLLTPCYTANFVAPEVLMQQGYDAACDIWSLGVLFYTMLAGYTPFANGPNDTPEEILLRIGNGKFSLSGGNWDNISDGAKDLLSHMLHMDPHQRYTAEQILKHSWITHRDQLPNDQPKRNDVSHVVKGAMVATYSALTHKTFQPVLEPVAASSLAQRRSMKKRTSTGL
Chain of RAC-gamma serine/threonine-protein kinase (Q9Y243 whole entry): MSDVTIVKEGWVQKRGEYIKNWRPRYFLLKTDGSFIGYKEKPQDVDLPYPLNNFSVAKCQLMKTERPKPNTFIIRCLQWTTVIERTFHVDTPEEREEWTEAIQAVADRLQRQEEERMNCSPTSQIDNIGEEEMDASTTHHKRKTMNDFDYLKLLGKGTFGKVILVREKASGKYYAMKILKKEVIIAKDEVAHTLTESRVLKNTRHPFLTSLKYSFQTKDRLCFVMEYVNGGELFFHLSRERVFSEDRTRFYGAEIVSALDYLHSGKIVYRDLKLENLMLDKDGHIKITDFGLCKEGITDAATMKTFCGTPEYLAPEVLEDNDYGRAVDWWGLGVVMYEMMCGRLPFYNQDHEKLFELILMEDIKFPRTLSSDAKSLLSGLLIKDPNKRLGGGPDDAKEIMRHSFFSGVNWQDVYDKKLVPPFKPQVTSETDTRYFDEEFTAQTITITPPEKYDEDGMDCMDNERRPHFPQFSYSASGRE
Chain of Protein kinase C beta type (P05771 whole entry): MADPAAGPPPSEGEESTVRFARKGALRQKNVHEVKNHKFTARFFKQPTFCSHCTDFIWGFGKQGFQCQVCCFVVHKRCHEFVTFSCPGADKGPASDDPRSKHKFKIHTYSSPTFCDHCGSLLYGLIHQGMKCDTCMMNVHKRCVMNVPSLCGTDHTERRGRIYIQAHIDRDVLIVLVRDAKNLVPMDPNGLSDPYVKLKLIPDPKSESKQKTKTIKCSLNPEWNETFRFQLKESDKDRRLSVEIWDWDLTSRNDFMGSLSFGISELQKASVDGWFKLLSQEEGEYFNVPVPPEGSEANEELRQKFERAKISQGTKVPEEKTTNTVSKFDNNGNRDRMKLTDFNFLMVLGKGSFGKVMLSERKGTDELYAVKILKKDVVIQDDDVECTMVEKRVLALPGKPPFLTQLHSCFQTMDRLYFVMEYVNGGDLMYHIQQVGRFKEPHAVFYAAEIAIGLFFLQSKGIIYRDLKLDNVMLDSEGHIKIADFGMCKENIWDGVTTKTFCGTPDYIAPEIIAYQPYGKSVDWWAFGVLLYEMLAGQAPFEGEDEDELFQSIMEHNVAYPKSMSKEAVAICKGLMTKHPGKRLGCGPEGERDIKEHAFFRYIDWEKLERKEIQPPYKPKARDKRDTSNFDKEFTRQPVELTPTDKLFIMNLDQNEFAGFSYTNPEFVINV

For `C[C@@H](Nc1cc(F)cc(F)c1)c1cc(C(=O)N(C)C)cc2c(=O)cc(N3CCOCC3)oc12` [AZD-8186], the Kd in assay [1], in [2], in assay [3], in [4], in assay [5] and in assay [6] was > 30 µM (inactive) in each case. In [7], the Kd is > 30 µM (inactive).
For the compound `C[C@@H](c1ccc2nccn2c1)n1nnc2ncc(-c3cnn(C)c3)nc21` [SAVOLITINIB], the Kd in assay [1], in [2], in assay [8], in assay [3], in [4] and in assay [5] was > 30 µM (inactive) in each case. Further, the Kd in assay [6] and in assay [7] was > 30 µM (inactive) throughout.
Turning to `Cc1nc(N)sc1-c1ccnc(Nc2ccc(N3CCOCC3)cc2)n1` [CYC-116], the Kd in assay [1] is > 30 µM (inactive); in assay [2], 0.007 µM (active); in [8] it was > 30 µM (inactive); in [3], > 30 µM (inactive); in [5], 0.545 µM (active); in [6] it was > 30 µM (inactive). Further, in assay [7], the Kd is > 30 µM (inactive).
On to `Cc1cc(Nc2cc(N3CCN(C)CC3)nc(/C=C/c3ccccc3)n2)n[nH]1` [ENMD-2076], for which the Kd in assay [2], in [8], in assay [3], in [5], in assay [6] and in assay [7] was > 30 µM (inactive) throughout.
As for `Cc1ccc(NC(=O)c2ccc(CN3CC[C@H](N(C)C)C3)c(C(F)(F)F)c2)cc1Nc1nccc(-c2cncnc2)n1` [BAFETINIB], the Kd in assay [1], in assay [2], in [3], in assay [9], in assay [4] and in assay [5] was > 30 µM (inactive) each time. The Kd in assay [6] and in assay [7] was > 30 µM (inactive) in each case.
Regarding `O=C(Nc1cccc(Cl)c1)Nc1ncc(CCNc2ncnc3ccsc23)s1` [SNS-314], the Kd in assay [1], in [2], in [8], in assay [5], in assay [6] and in assay [7] was > 30 µM (inactive) each time.
For the compound `Nc1nc(N)c2nc(-c3cccc(O)c3)c(-c3cccc(O)c3)nc2n1` [TG100-115], the Kd in [2] is 3.01 µM (active); in assay [8], > 30 µM (inactive); in assay [3], > 30 µM (inactive); in assay [5] it was > 30 µM (inactive); in [6], > 30 µM (inactive).
As to `CN1CCN(c2ccc3nc(-c4c(N)c5c(F)cccc5[nH]c4=O)[nH]c3c2)CC1` [DOVITINIB], the Kd in assay [2] was 0.104 µM (active); in [8] it was > 30 µM (inactive); in [3], > 30 µM (inactive); in [5], > 30 µM (inactive); in [6] it was > 30 µM (inactive).
On to `COc1cc(N2CCC(N3CCN(C)CC3)CC2)ccc1Nc1ncnc(Nc2ccccc2S(=O)(=O)C(C)C)n1` [ASP-3026], for which the Kd in [1] was > 30 µM (inactive); in assay [2] it was 0.822 µM (active); in [3] it was > 30 µM (inactive); in assay [9], > 30 µM (inactive); in [4] it was > 30 µM (inactive); in assay [5], > 30 µM (inactive). The Kd in assay [6] and in assay [7] was > 30 µM (inactive) throughout.
On to `Cn1ncc(Cl)c1-c1cc(C(=O)N[C@H](CN)Cc2cccc(F)c2)sc1Cl` [AFURESERTIB], for which the Kd in [1], in assay [2], in [8], in [3], in [4] and in assay [5] was > 30 µM (inactive) in each case. Further, the figures for the Kd in assay [6] and in [7] were 4.88 µM (active) and > 30 µM (inactive), respectively.
`Cn1cc(-c2ccc3nnc(C(F)(F)c4ccc5ncccc5c4)n3n2)cn1` [JNJ-38877605]: the Kd in assay [1], in [2], in assay [3], in [9], in assay [4] and in assay [5] was > 30 µM (inactive) each time. Moreover, the Kd in assay [6] and in assay [7] was > 30 µM (inactive) each time.
`C[C@@H]1CN(Cc2ccc(F)cc2)[C@@H](C)CN1C(=O)c1cc2c(C(=O)C(=O)N(C)C)cn(C)c2cc1Cl` [TALMAPIMOD]: the Kd in [1], in assay [2], in assay [3], in assay [9], in assay [4] and in [5] was > 30 µM (inactive) each time. Moreover, the Kd in assay [6] and in assay [7] was > 30 µM (inactive) in each case.
As to `CCn1c(-c2nonc2N)nc2c(C#CC(C)(C)O)ncc(OC[C@H]3CCCNC3)c21` [GSK-690693], the Kd was > 30 µM (inactive) in assay [2]; > 30 µM (inactive) in [8]; > 30 µM (inactive) in assay [3]; > 30 µM (inactive) in assay [5]; 0.31 µM (active) in assay [6]; > 30 µM (inactive) in assay [7].
`Cc1cn(-c2cc(NC(=O)c3ccc(C)c(Nc4nccc(-c5cccnc5)n4)c3)cc(C(F)(F)F)c2)cn1` [NILOTINIB]: the Kd in [2], in assay [8], in assay [3], in assay [5], in assay [6] and in assay [7] was > 30 µM (inactive) throughout.

The values are drawn from ChEMBL document CHEMBL3991601, “The target landscape of clinical kinase drugs” (Science, 2017).
